Laboratory results reported in PubChem BioAssay AID1918941 (Molecular Pharmacology Branch, DTP, NCI, 2023).

Tested on: SW 1271 complex spheroids, viability
Assay: Anticancer human tumor SW 1271 cell line growth inhibition [LSD1];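 further: spheroids exposed to agents for 7 days before luminescence read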;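 on viability, T/C: 100% = DMSO vehicle control viability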
Conditions: for IC50: curve of first compound; for viability, T/C: stronger effect = lower value
Method in brief: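 Complex spheroids of tumor cells with HUVEC and human MSCs, exposed to iadademstat combined with other agents. Each agent tested in half-log steps from near clinical Cmax (else 10 microM top), DMSO ≤0.25%.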

[1] = second compound 0.1 µM, first compound 0.00949 µM
[2] = second compound 0.1 µM, first compound 0.03 µM
[3] = second compound 0.1 µM, first compound 0.0949 µM
[4] = second compound 0.1 µM, first compound 0.3 µM
[5] = second compound 0.1 µM, first compound 0.949 µM
[6] = second compound 0.1 µM, first compound 3 µM
[7] = second compound 0.316 µM, first compound 0.00949 µM
[8] = second compound 0.316 µM, first compound 0.03 µM
[9] = second compound 0.316 µM, first compound 0.0949 µM
[10] = second compound 0.316 µM, first compound 0.3 µM
[11] = second compound 0.316 µM, first compound 0.949 µM
[12] = second compound 0.316 µM, first compound 3 µM
[13] = second compound 1 µM, first compound 0.00949 µM
[14] = second compound 1 µM, first compound 0.03 µM
[15] = second compound 1 µM, first compound 0.0949 µM
[16] = second compound 1 µM, first compound 0.3 µM
[17] = second compound 1 µM, first compound 0.949 µM
[18] = second compound 1 µM, first compound 3 µM
[19] = second compound 3.16 µM, first compound 0.00949 µM
[20] = second compound 3.16 µM, first compound 0.03 µM
[21] = second compound 3.16 µM, first compound 0.0949 µM
[22] = second compound 3.16 µM, first compound 0.3 µM
[23] = second compound 3.16 µM, first compound 0.949 µM
[24] = second compound 3.16 µM, first compound 3 µM
[25] = second compound 10 µM, first compound 0.00949 µM
[26] = second compound 10 µM, first compound 0.03 µM
[27] = second compound 10 µM, first compound 0.0949 µM
[28] = second compound 10 µM, first compound 0.3 µM
[29] = second compound 10 µM, first compound 0.949 µM
[30] = second compound 10 µM, first compound 3 µM

## COc1cc(Nc2ncc3c(n2)-c2ccc(Cl)cc2C(c2c(F)cccc2OC)=NC3)ccc1C(=O)O + NC1CCC(NC2CC2c2ccccc2)CC1
Second compound 0.1 µM
  IC50: 200 nM
Second compound 0.316 µM
  IC50: 148 nM
Second compound 1 µM
  IC50: 184 nM
Second compound 3.16 µM
  IC50: 175 nM
Second compound 10 µM
  IC50: 186 nM
Second compound 0.1 µM, first compound 0.00316 µM
  viability, T/C: 84.2%
Second compound 0.1 µM, first compound 0.01 µM
  viability, T/C: 78.2%
Second compound 0.1 µM, first compound 0.0316 µM
  viability, T/C: 80.3%
Second compound 0.1 µM, first compound 0.1 µM
  viability, T/C: 59.5%
Second compound 0.1 µM, first compound 0.316 µM
  viability, T/C: 42.9%
Second compound 0.1 µM, first compound 1 µM
  viability, T/C: 16%
Second compound 0.316 µM, first compound 0.00316 µM
  viability, T/C: 81.2%
Second compound 0.316 µM, first compound 0.01 µM
  viability, T/C: 80.3%
Second compound 0.316 µM, first compound 0.0316 µM
  viability, T/C: 75.9%
Second compound 0.316 µM, first compound 0.1 µM
  viability, T/C: 55.4%
Second compound 0.316 µM, first compound 0.316 µM
  viability, T/C: 36%
Second compound 0.316 µM, first compound 1 µM
  viability, T/C: 13.5%
Second compound 1 µM, first compound 0.00316 µM
  viability, T/C: 83.5%
Second compound 1 µM, first compound 0.01 µM
  viability, T/C: 81.9%
Second compound 1 µM, first compound 0.0316 µM
  viability, T/C: 85.4%
Second compound 1 µM, first compound 0.1 µM
  viability, T/C: 58.3%
Second compound 1 µM, first compound 0.316 µM
  viability, T/C: 40.4%
Second compound 1 µM, first compound 1 µM
  viability, T/C: 13.7%
Second compound 3.16 µM, first compound 0.00316 µM
  viability, T/C: 97.3%
Second compound 3.16 µM, first compound 0.01 µM
  viability, T/C: 80.4%
Second compound 3.16 µM, first compound 0.0316 µM
  viability, T/C: 84.8%
Second compound 3.16 µM, first compound 0.1 µM
  viability, T/C: 62.1%
Second compound 3.16 µM, first compound 0.316 µM
  viability, T/C: 36.3%
Second compound 3.16 µM, first compound 1 µM
  viability, T/C: 15.1%
Second compound 10 µM, first compound 0.00316 µM
  viability, T/C: 81.3%
Second compound 10 µM, first compound 0.01 µM
  viability, T/C: 80.5%
Second compound 10 µM, first compound 0.0316 µM
  viability, T/C: 79.7%
Second compound 10 µM, first compound 0.1 µM
  viability, T/C: 59.2%
Second compound 10 µM, first compound 0.316 µM
  viability, T/C: 40.7%
Second compound 10 µM, first compound 1 µM
  viability, T/C: 14.1%

## NS(=O)(=O)OCC1CC(n2ccc3c(NC4CCc5ccccc54)ncnc32)CC1O (stereo not given) + NC1CCC(NC2CC2c2ccccc2)CC1
Second compound 0.1 µM
  IC50: > 3000 nM
Second compound 0.316 µM
  IC50: > 3000 nM
Second compound 1 µM
  IC50: > 3000 nM
Second compound 3.16 µM
  IC50: > 3000 nM
Second compound 10 µM
  IC50: > 3000 nM
[1]
  viability, T/C: 149%
[2]
  viability, T/C: 125%
[3]
  viability, T/C: 77.5%
[4]
  viability, T/C: 84.7%
[5]
  viability, T/C: 79.6%
[6]
  viability, T/C: 74.8%
[7]
  viability, T/C: 162%
[8]
  viability, T/C: 131%
[9]
  viability, T/C: 87.7%
[10]
  viability, T/C: 73.6%
[11]
  viability, T/C: 77.5%
[12]
  viability, T/C: 77.8%
[13]
  viability, T/C: 164%
[14]
  viability, T/C: 115%
[15]
  viability, T/C: 82.4%
[16]
  viability, T/C: 66.5%
[17]
  viability, T/C: 80.7%
[18]
  viability, T/C: 75.5%
[19]
  viability, T/C: 132%
[20]
  viability, T/C: 113%
[21]
  viability, T/C: 93.8%
[22]
  viability, T/C: 75.2%
[23]
  viability, T/C: 69.8%
[24]
  viability, T/C: 70.1%
[25]
  viability, T/C: 163%
[26]
  viability, T/C: 124%
[27]
  viability, T/C: 86.5%
[28]
  viability, T/C: 73.9%
[29]
  viability, T/C: 73.9%
[30]
  viability, T/C: 70.2%

## O=C(C=Cc1cccc(S(=O)(=O)Nc2ccccc2)c1)NO + NC1CCC(NC2CC2c2ccccc2)CC1
Second compound 0.1 µM
  IC50: 167 nM
Second compound 0.316 µM
  IC50: 122 nM
Second compound 1 µM
  IC50: 88.5 nM
Second compound 3.16 µM
  IC50: 606 nM
Second compound 10 µM
  IC50: 84.7 nM
[1]
  viability, T/C: 72.1%
[2]
  viability, T/C: 72.1%
[3]
  viability, T/C: 57.9%
[4]
  viability, T/C: 22.7%
[5]
  viability, T/C: 6.87%
[6]
  viability, T/C: 96%
[7]
  viability, T/C: 88.8%
[8]
  viability, T/C: 69.8%
[9]
  viability, T/C: 61.9%
[10]
  viability, T/C: 18.5%
[11]
  viability, T/C: 7.13%
[12]
  viability, T/C: 97.9%
[13]
  viability, T/C: 78.8%
[14]
  viability, T/C: 68.8%
[15]
  viability, T/C: 52.4%
[16]
  viability, T/C: 19.1%
[17]
  viability, T/C: 8.74%
[18]
  viability, T/C: 102%
[19]
  viability, T/C: 88.6%
[20]
  viability, T/C: 72.9%
[21]
  viability, T/C: 56.1%
[22]
  viability, T/C: 26.4%
[23]
  viability, T/C: 6.99%
[24]
  viability, T/C: 108%
[25]
  viability, T/C: 85.3%
[26]
  viability, T/C: 75.7%
[27]
  viability, T/C: 48.8%
[28]
  viability, T/C: 22.1%
[29]
  viability, T/C: 7.93%
[30]
  viability, T/C: 98.2%
